Measurements: patent US12448369B2 (Edgewise Therapeutics, Inc., priority 2023, dated 2025)

Key:
[1] = biological target: T1, Porcine ventricle myofibrils (ventricular myosin ATPase) (Sus scrofa, UniProt P79293); experiment: Myofibril ATPase assay, porcine ventricle myofibrils; type: biochemical, porcine (Yucatan minipigs)
T1 construct: Myofibrils from porcine cardiac muscle was isolated from the left ventricle of Yucatan minipigs; tissue Exemplar Genetics; host or cells: left ventricle of Yucatan minipigs, myofibrils prepared in house
Protocol: (§1) Example 1. Myofibril ATPase Assay
(§2) Myofibril ATPase assays are known in the art to be useful in evaluating small molecules for the treatment of HCM and other cardiac indications. Myosin ATPase activity is assessed by using a coupled reaction system, in which ADP generated by the myosin ATPase function is coupled to the disappearance of NADH through the pyruvate kinase/lactate dehydrogenase (PK-LDH) system. ATPase activity produces ADP, which is used as a substrate for PK to produce pyruvate and regenerate ATP. The pyruvate is then used as a substrate by LDH to oxidize NADH to NAD+. The rate of the reaction is monitored through the time-dependent disappearance of NADH using absorbance at 340 nm, which, when the couple system is in stoichiometric excess, is directly correlated to the ATPase activity of the myosin. Inhibition of ATPase activity by the assayed compounds is indicated by a reduced rate of NADH loss, relative to vehicle-treated controls, over the experimental time window. Activation of ATPase activity by the assayed compounds is indicated by an increased rate of NADH loss, relative to vehicle-treated controls, over the experimental time window. Rabbit Psoas, Porcine atria, and Porcine ventricle are the primary sources of myofibril material.
(§3) Materials: The following stock solutions and reagents were used in the Myofibril ATPase Assay:
(§4) Stock Solutions of pCa buffer. Combine PIPES, CaCl2, and EGTA solutions with water. Adjust pH to 7.0 and bring final volume to 100 mL.
(§5) Buffer A & Buffer B. Prepare buffers A and B according to the table below.
(§6) Myofibril ATPase Assay Procedure: BSA, ATP, NADH, PEP, and DTT solutions were thawed at room temperature, then transferred to ice. Pellet-frozen myofibrils were transferred with approximately twice the required volume into a sufficiently large tube and capped. Myofibrils were thawed by rolling in a water bath for approximately 15 min at room temperature and cooled on ice. Buffers A and B were prepared by adjusting volumes as necessary for required number of wells and stored on ice. 0.5 μL of the compounds to be assayed were added into wells. 25 μL of Buffer A was dispensed into the wells, followed by 25 μL of Buffer B. The wells were measured for absorbance at 340 nm, using a kinetic protocol in which the wells are read every 1.5-2 min for 75 min. Assay data analysis was performed using a python script that filtered the raw data to retain those points falling between a starting and ending time and between a maximum and minimum absorbance, then used the filtered time-domain 340 nm absorbance data in each well to calculate a slope via linear regression analysis in units of mAU/min. Compound slopes were normalized between 100% and 0% activity, where 100% represented the slope of wells containing only compound vehicle, and fit to a 4-parameter logistic model. In addition to the fit parameters, the EC25% values were calculated, relative to the 100% normalized value. Additionally, the Y125 values were calculated for compounds that increased myosin ATP-ase activity. Fit parameters, calculated effective concentrations, filtered raw data, and calculated slopes were exported, in addition to compound-specific graphs of normalized ATPase activity versus concentration in μM. Each value reported in Table 5, Table 6, and Table 7 is either a Y75 value or a Y125 value. Values without a double cross sign, ‡, are Y75 values, which reflect the concentration required to reduce myosin ATP-ase activity by 25% (e.g., Y-axis activity value is 75% of initial value), relative to myosin ATP-ase activity in the absence of exogenous compound.
Cardiac Myofibril Isolation:
Myofibrils from porcine cardiac muscle was isolated from the left ventricle of Yucatan minipigs. Myofibrils were prepared using a method based upon those described in Herrmann et al. (1993) and summarized here. […]

[2] = system: Porcine atria myofibrils (atrial myosin ATPase); experiment: Myofibril ATPase assay, porcine atria myofibrils; type: biochemical
Protocol: as §1, §2, §3, §4, §5, §6
(§7) Myofibrils from various animals and tissue types were acquired from a variety of sources: rabbit psoas muscle was purchased from Pel-Freez Biologicals (Rogers, AR) and porcine cardiac muscle was purchased from Exemplar Genetics. All myofibrils were prepared using a method based upon those described in Herrmann et al. (1993) and summarized here. […]

[3] = system: Rabbit Psoas myofibrils (skeletal myosin ATPase); experiment: Myofibril ATPase assay, rabbit psoas (skeletal) myofibrils; type: biochemical
Protocol: as §1, §2, §3, §4, §5, §6
Skeletal Myofibril Isolation:
as §7

[4] = porcine ventricle myofibrils, Y75 value
[5] = porcine atria myofibrils, Y75 value (75% activity relative to no compound)
[6] = rabbit psoas myofibrils, Y75 value
[7] = Y75 value (no ‡ mark), porcine ventricle myofibrils
[8] = Y75 value (no ‡ mark), porcine atria myofibrils
[9] = Y75 value (no ‡ mark), rabbit psoas myofibrils

T1 sequence (P79293 whole entry): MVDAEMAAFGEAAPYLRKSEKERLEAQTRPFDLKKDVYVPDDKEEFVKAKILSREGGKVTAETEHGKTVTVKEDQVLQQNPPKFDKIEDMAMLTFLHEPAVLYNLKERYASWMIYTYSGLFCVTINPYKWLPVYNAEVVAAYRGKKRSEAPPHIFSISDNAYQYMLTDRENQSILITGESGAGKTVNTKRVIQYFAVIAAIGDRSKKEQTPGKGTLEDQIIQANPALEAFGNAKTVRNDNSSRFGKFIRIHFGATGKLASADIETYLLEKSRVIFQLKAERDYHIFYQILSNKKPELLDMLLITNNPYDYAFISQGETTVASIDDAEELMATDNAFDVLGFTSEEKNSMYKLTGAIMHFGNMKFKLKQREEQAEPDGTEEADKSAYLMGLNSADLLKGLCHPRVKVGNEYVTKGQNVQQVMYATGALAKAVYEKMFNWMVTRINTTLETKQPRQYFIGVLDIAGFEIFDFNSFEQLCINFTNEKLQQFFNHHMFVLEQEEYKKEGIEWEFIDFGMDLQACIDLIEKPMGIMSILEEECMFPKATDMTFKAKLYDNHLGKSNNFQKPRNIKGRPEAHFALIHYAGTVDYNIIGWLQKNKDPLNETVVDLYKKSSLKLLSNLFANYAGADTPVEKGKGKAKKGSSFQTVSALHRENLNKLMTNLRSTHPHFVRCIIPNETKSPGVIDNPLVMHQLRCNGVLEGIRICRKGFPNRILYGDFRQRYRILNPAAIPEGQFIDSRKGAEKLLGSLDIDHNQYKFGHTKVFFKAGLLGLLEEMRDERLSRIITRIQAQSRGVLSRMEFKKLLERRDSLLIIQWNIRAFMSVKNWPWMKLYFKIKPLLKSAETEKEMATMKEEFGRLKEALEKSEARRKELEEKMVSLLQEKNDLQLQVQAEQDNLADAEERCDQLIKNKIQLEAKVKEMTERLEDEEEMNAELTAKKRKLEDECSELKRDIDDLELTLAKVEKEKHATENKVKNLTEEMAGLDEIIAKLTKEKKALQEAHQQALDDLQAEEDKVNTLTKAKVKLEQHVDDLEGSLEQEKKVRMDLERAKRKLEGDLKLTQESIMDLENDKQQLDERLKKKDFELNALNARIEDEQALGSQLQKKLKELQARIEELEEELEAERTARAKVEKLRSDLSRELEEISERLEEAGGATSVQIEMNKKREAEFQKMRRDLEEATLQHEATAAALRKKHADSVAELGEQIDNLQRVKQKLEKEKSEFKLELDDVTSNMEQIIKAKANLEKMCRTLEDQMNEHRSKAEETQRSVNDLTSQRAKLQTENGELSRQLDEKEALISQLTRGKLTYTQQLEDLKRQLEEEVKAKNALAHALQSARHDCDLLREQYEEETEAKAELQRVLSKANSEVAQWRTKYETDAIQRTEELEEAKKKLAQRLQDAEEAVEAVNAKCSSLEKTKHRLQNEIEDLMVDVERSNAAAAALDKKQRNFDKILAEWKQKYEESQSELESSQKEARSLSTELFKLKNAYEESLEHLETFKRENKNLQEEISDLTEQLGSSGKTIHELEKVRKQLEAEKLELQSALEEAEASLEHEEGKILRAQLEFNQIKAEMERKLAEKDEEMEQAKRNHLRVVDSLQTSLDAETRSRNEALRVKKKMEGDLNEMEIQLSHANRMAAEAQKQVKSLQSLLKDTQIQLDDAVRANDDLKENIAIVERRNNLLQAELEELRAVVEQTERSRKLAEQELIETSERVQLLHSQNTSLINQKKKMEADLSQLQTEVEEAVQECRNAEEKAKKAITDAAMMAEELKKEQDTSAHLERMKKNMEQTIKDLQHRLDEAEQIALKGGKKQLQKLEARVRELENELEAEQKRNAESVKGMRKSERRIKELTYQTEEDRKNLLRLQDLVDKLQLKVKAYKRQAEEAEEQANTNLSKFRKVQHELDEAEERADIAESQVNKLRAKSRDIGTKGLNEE

SMILES	Ventricular EC25 [1, 4] [µM]	Atrial EC25 [2, 5] [µM]	Skeletal EC25 [3, 6] [µM]	Ventricular EC25 [1, 7] [µM]	Atrial EC25 [2, 8] [µM]	Skeletal EC25 [3, 9] [µM]	further results
COc1nccc2[nH]c(=O)c(CC(=O)N[C@@H](C)c3ccc(F)cc3F)c(C(F)(F)F)c12 [compound 423]	100.00	100.00	0.34	–	–	–	–
Cc1nc(C#N)ncc1[C@@H](C)NC(=O)Cc1c(C)c2c(F)c(F)ccc2[nH]c1=O [compound 1131]	–	–	–	0.89	0.35	0.53	–
Cc1c(C(C)C(=O)N[C@@H](C)c2ccc(F)cc2F)c(=O)[nH]c2ccnc(I)c12 (stereo partly drawn) [compound 349]	5.41	0.76	0.13	–	–	–	–
Cc1nccc2[nH]c(=O)c(CC(=O)N[C@H](C)c3ccc(O)nc3)c(C)c12 (single isomer, unassigned) [compound 295]	100.00	100.00	100.00	–	–	–	–
Cc1c(C(F)(F)C(=O)N[C@@H](C)c2ncc(C#N)cc2F)c(=O)[nH]c2ccc(F)c(C#N)c12 (single isomer, unassigned) [compound 4836]	–	–	–	0.15	0.17	0.02	–
Cc1c(CC(=O)N[C@@H](C)c2ccc(F)cc2F)c(=O)[nH]c2ccc(Br)cc12 [compound 120]	–	–	–	0.25	0.04	0.05	–
N#Cc1cnc2c(c1)CC[C@@H]2NC(=O)C1(c2cc3c(F)c(F)ccc3[nH]c2=O)CC1 (single isomer, unassigned) [compound 4824]	–	–	–	100.00	100.00	8.80	–
COc1ccc2[nH]c(=O)c(CC(=O)N[C@@H](C)c3ncc(F)cc3F)cc2c1C (single isomer, unassigned) [compound 80]	–	–	–	100.00	100.00	18.54	–
Cc1nccc2[nH]c(=O)c(CC(=O)N[C@@H](CO)c3ccc(C#N)cc3F)c(C)c12 (single isomer, unassigned) [compound 243]	2.20	0.56	0.17	–	–	–	–
Cc1c(C2(C(=O)N[C@H](C)c3ncc(C#N)cc3F)CC2)c(=O)[nH]c2ccc(F)cc12 (single isomer, unassigned) [compound 2596]	–	–	–	0.55	0.11	0.16	–
C[C@H](NC(=O)C1(c2cc3c(F)c(F)ccc3[nH]c2=O)CC1)c1ccc(F)cc1F [compound 4814]	–	–	–	1.31	0.23	0.19	–
COC[C@H](NC(=O)Cc1c(C)c2c(C#N)nccc2[nH]c1=O)c1ccc(C#N)cc1F [compound 170]	1.02	0.08	0.03	–	–	–	–
C[C@H](NC(=O)[C@@H](C)c1c(C(F)(F)F)c2c(F)cccc2[nH]c1=O)c1ccc(F)cc1F (single isomer, unassigned) [compound 97]	–	–	–	5.34	0.19	0.23	–
COc1nccc2[nH]c(=O)c(CC(=O)N[C@H](C)c3ncc(C#N)cc3F)c(C(F)(F)F)c12 (single isomer, unassigned) [compound 3009]	2.17	0.14	100.00	–	–	–	–
Cc1c(CC(=O)N[C@@H](C)c2ncc(F)cc2F)c(=O)[nH]c2ccc(F)c(C(F)(F)F)c12 [compound 10]	–	–	–	0.39	0.16	0.05	–
Cc1c(CC(=O)N[C@H](CO)c2ccc(C#N)cc2F)c(=O)[nH]c2ccnc(C(F)(F)F)c12 (single isomer, unassigned) [compound 224]	100.00	6.57	0.36	–	–	–	–
Cc1nccc2[nH]c(=O)c(C(F)(F)C(=O)N[C@@H](C)c3cnc(C#N)cn3)c(C)c12 (single isomer, unassigned) [compound 3521]	34.58	14.61	2.68	–	–	–	–
C[C@@H](NC(=O)Cc1cc2c(F)c(F)ccc2[nH]c1=O)c1nc(C#N)co1 (single isomer, unassigned) [compound 4006]	–	–	–	–	–	–	Ventricular EC25 ([1]; Y75 value: concentration required to reduce myosin ATP-ase activity by 25%, Porcine Ventricle Prep pCa 25 GEOM_MEAN): 6.66 µM; Atrial EC25 ([2]; Y75 value: concentration required to reduce myosin ATP-ase activity by 25%, Porcine Atria Prep pCa 25 GEOM_MEAN): 0.74 µM; Skeletal EC25 ([3]; Y75 value: concentration required to reduce myosin ATP-ase activity by 25%, Rabbit Psoas Prep pCa 25 GEOM_MEAN): 1.11 µM
Cc1nc(C#N)cnc1[C@H](C)NC(=O)Cc1c(C)c2nc(C(F)(F)F)ccc2[nH]c1=O (single isomer, unassigned) [compound 139]	0.18	0.08	0.02	–	–	–	–
C[C@@H](NC(=O)Cc1c(C2CC2)c2cc(F)ccc2[nH]c1=O)c1ncc(C#N)cc1F [compound 39]	–	–	–	100.00	100.00	100.00	–
C[C@@H](NC(=O)C1(c2cc3c(F)c(F)ccc3[nH]c2=O)CC1)c1ccc(F)cc1F [compound 4813]	–	–	–	100.00	0.37	0.91	–
Cc1c(C(F)(F)C(=O)N[C@@H](C)c2ccc(F)cc2F)c(=O)[nH]c2ccc(F)cc12 [compound 4816]	–	–	–	0.26	0.15	0.15	–
Cc1nccc2[nH]c(=O)c(CC(=O)N[C@@H](CO)c3cccnc3)c(C)c12 (single isomer, unassigned) [compound 312]	100.00	100.00	100.00	–	–	–	–
Cc1c(CC(=O)N[C@H](CO)c2ccc(C#N)cc2F)c(=O)[nH]c2ccnc(OC3CC3)c12 [compound 203]	100.00	100.00	1.10	–	–	–	–
Cc1nccc2[nH]c(=O)c(CC(=O)NC(CO)c3ncccc3F)c(C)c12 (stereo not drawn) [compound 237]	100.00	100.00	100.00	–	–	–	–
CC(C(=O)N[C@@H](C)c1ccc(F)cc1F)c1c(C(F)(F)F)c2cc(F)ccc2[nH]c1=O (stereo partly drawn) [compound 113]	–	–	–	1.61	0.10	0.04	–
Cc1c(C(F)(F)C(=O)N[C@@H](C)c2cc(C#N)ccn2)c(=O)[nH]c2ccc(F)cc12 (single isomer, unassigned) [compound 2576]	–	–	–	100.00	38.95	76.36	–
C[C@H](NC(=O)Cc1cc2c(C(F)(F)F)nccc2[nH]c1=O)c1ccc(F)cc1F [compound 435]	19.10	32.52	0.38	–	–	–	–
Cc1c(CC(=O)N[C@@H](C)c2ncc(C#N)cc2F)c(=O)[nH]c2ccc(Cl)cc12 (single isomer, unassigned) [compound 2050]	–	–	–	0.18	0.09	0.04	–
